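Test compounds were applied to cells in 96-well plates for 48 hours at 5 doses. GI50: concentration for 50% inhibition of growth.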 Activity calls are given as the source filed them. No stated cut-off is given here; in the data, active = GI50 up to about 1.1 µM and inactive = higher.
Tests used:
Assay in all cases: inhibition of tumour cell growth, NCI panel, 48 h
A549 = tested on: A549
OVCAR-4 = tested on: OVCAR-4
MDA-MB-231 = tested on: MDA-MB-231
PC-3 = tested on: PC-3
EKVX = tested on: EKVX
HL-60 = tested on: HL-60
MDA-N = tested on: MDA-N
OVCAR-8 = tested on: OVCAR-8
MDA-MB-435 = tested on: MDA-MB-435
SR = tested on: SR
IGROV-1 = tested on: IGROV-1
RPMI-8226 = tested on: RPMI-8226
T47D = tested on: T47D
DU-145 = tested on: DU-145
UACC-257 = tested on: UACC-257
HOP-92 = tested on: HOP-92
SF-268 = tested on: SF-268
RXF 393 = tested on: RXF 393
NCI-H226 = tested on: NCI-H226

Structure (SMILES)	GI50 (A549)	GI50 (OVCAR-4)	GI50 (MDA-MB-231)	GI50 (PC-3)	GI50 (EKVX)	GI50 (HL-60)	GI50 (MDA-N)	GI50 (OVCAR-8)	GI50 (MDA-MB-435)	GI50 (SR)	GI50 (IGROV-1)	GI50 (RPMI-8226)	GI50 (T47D)	GI50 (DU-145)	GI50 (UACC-257)	GI50 (HOP-92)	GI50 (SF-268)	GI50 (RXF 393)	GI50 (NCI-H226)
CCCCCCCCCCCCCCCCCCOc1ccc(/C=C/C2=[N+](CCCl)CCO2)cc1	> 100 µM (inactive)	> 100 µM (inactive)	41 µM (inactive)	> 100 µM (inactive)	> 100 µM (inactive)	53.3 µM (inactive)	> 100 µM (inactive)	> 100 µM (inactive)	> 100 µM (inactive)	30.9 µM (inactive)	67.6 µM (inactive)	> 100 µM (inactive)	> 100 µM (inactive)	> 100 µM (inactive)	> 100 µM (inactive)	> 100 µM (inactive)			
Nc1c2cc3ccc2nc2ccc(cc12)OCCOCCOCCOCCOCCOCCO3	> 10 µM (inactive)	> 10 µM (inactive)	> 10 µM (inactive)	> 10 µM (inactive)	> 10 µM (inactive)	> 10 µM (inactive)	> 10 µM (inactive)	> 10 µM (inactive)	> 10 µM (inactive)	> 10 µM (inactive)	> 10 µM (inactive)	> 10 µM (inactive)	> 10 µM (inactive)	> 10 µM (inactive)	> 10 µM (inactive)	> 10 µM (inactive)	> 10 µM (inactive)	> 10 µM (inactive)	> 10 µM (inactive)
CC(C)CC(NC=O)C(=O)NC(Cc1ccccc1)NC(=O)CNC(=O)C(C)NC(=O)C(N)Cc1ccc(O)cc1 (stereo not given)	> 100 µM (inactive)	91.8 µM (inactive)	> 100 µM (inactive)	> 100 µM (inactive)	> 100 µM (inactive)	> 100 µM (inactive)	> 100 µM (inactive)	> 100 µM (inactive)	> 100 µM (inactive)	> 100 µM (inactive)	> 100 µM (inactive)	> 100 µM (inactive)	> 100 µM (inactive)	> 100 µM (inactive)		> 100 µM (inactive)	> 100 µM (inactive)	> 100 µM (inactive)	> 100 µM (inactive)
C[C@]12Cc3cnn(-c4ccc(F)cc4)c3NC1CC[C@@H]1C2CC[C@@]2(C)C1CC[C@@H]2O (stereo not given in full)	4.14 µM (inactive)	13.2 µM (inactive)	6.97 µM (inactive)	10 µM (inactive)	4.75 µM (inactive)	1.61 µM (inactive)	10.2 µM (inactive)	12.5 µM (inactive)	7.8 µM (inactive)	0.537 µM (active)	12.7 µM (inactive)		2.65 µM (inactive)	5.42 µM (inactive)	5.24 µM (inactive)	11 µM (inactive)	10.1 µM (inactive)	1.16 µM (inactive)	7.93 µM (inactive)
C=C(C)[C@@H]1CC[C@]2(CO)CC[C@]3(C)[C@H](CC[C@@H]4[C@@]5(C)CC[C@H](O)C(C)(C)[C@@H]5CC[C@]43C)[C@@H]12 [BETULIN]	9.35 µM (inactive)		33.3 µM (inactive)	30.2 µM (inactive)	25.6 µM (inactive)	34 µM (inactive)	45 µM (inactive)	12.5 µM (inactive)	19.5 µM (inactive)	43 µM (inactive)	34.8 µM (inactive)		61.4 µM (inactive)	84.3 µM (inactive)	23.3 µM (inactive)	16.7 µM (inactive)	25.1 µM (inactive)	10.3 µM (inactive)	39 µM (inactive)
COc1ccc(/C=C/C(=O)NCC(NC(=O)/C=C/c2ccc(OC)c(OC)c2)C(=O)O)cc1OC (stereo not given)	> 100 µM (inactive)	> 100 µM (inactive)	> 100 µM (inactive)	> 100 µM (inactive)	> 100 µM (inactive)		> 100 µM (inactive)	> 100 µM (inactive)	> 100 µM (inactive)	> 100 µM (inactive)	< 0.01 µM (active)	> 100 µM (inactive)	> 100 µM (inactive)	> 100 µM (inactive)	> 100 µM (inactive)	0.0163 µM (active)	> 100 µM (inactive)	> 100 µM (inactive)	> 100 µM (inactive)
CC1(C)c2ccccc2C(O)C12CCC(=O)CC2 (stereo not given)	34 µM (inactive)	> 100 µM (inactive)	> 100 µM (inactive)	> 100 µM (inactive)	> 100 µM (inactive)	> 100 µM (inactive)	> 100 µM (inactive)		> 100 µM (inactive)	> 100 µM (inactive)	> 100 µM (inactive)	> 100 µM (inactive)	> 100 µM (inactive)	> 100 µM (inactive)	> 100 µM (inactive)	> 100 µM (inactive)	> 100 µM (inactive)	14.5 µM (inactive)	> 100 µM (inactive)
COc1ccc(C(=O)CC(c2ccccc2)[C@H]2C(c3ccc(OC)cc3)=Nc3c(nc(SC)n(C)c3=O)NC2c2ccccc2)cc1 (stereo not given in full)	> 100 µM (inactive)		> 100 µM (inactive)	> 100 µM (inactive)	> 100 µM (inactive)		> 100 µM (inactive)		> 100 µM (inactive)	> 100 µM (inactive)	> 100 µM (inactive)	> 100 µM (inactive)	> 100 µM (inactive)	> 100 µM (inactive)	> 100 µM (inactive)	> 100 µM (inactive)	> 100 µM (inactive)	> 100 µM (inactive)	> 100 µM (inactive)
O=CC(O)C(O)C(O)C(O)COC(=O)NCCCCC(=O)C(F)(F)C(F)(F)C(F)(F)C(F)(F)C(F)(F)C(F)(F)C(F)(F)F (stereo not given)	28.8 µM (inactive)	51.8 µM (inactive)	20 µM (inactive)	14.3 µM (inactive)		27.4 µM (inactive)	27.8 µM (inactive)		24.2 µM (inactive)	28.2 µM (inactive)	29.7 µM (inactive)	29.9 µM (inactive)	> 100 µM (inactive)	47.6 µM (inactive)	> 10 µM (inactive)	13.2 µM (inactive)	24.8 µM (inactive)	18.3 µM (inactive)	
O=C(O)CCC(c1ccccc1)(c1ccccc1)c1ccccc1	28.9 µM (inactive)	34.5 µM (inactive)	43.6 µM (inactive)	33 µM (inactive)	36 µM (inactive)	37.2 µM (inactive)	30.3 µM (inactive)	30.3 µM (inactive)	33 µM (inactive)	31.6 µM (inactive)		27 µM (inactive)	0.647 µM (active)	17.2 µM (inactive)	37 µM (inactive)	13.8 µM (inactive)	24.5 µM (inactive)		88.5 µM (inactive)
Cc1ccc(/C=C2\CCCCCC2=O)cc1	> 100 µM (inactive)	> 100 µM (inactive)	> 100 µM (inactive)	> 100 µM (inactive)	> 100 µM (inactive)	< 0.01 µM (active)	> 100 µM (inactive)		> 100 µM (inactive)	> 100 µM (inactive)	> 100 µM (inactive)	> 100 µM (inactive)	> 100 µM (inactive)	> 100 µM (inactive)	> 100 µM (inactive)	> 100 µM (inactive)	> 100 µM (inactive)		> 100 µM (inactive)

— ChEMBL document CHEMBL1201862, “PubChem BioAssay data set” (2004)
